Values joined by “and” are separate entries in the source; they are usually repeats but may differ in a detail not shown here. Equal values may be shown once.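 These data come from cells grown in 96-well plates and exposed to compound for 48 hours at five concentrations. GI50 is the concentration that inhibits growth by half. The concentration for full growth arrest is given as TGI.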
Tests used:
Experiment in all cases: NCI anticancer screen, dose series, 48 h
OVCAR-5 ovarian = tested on: OVCAR-5 ovarian
SK-MEL-5 melanoma = tested on: SK-MEL-5 melanoma
NCI-H23 lung = tested on: NCI-H23 lung
SK-OV-3 ovarian = tested on: SK-OV-3 ovarian
SF-539 CNS = tested on: SF-539 CNS
HCC-2998 colon = tested on: HCC-2998 colon
HOP-62 NSCLC = tested on: HOP-62 NSCLC
UACC-257 melanoma = tested on: UACC-257 melanoma
KM12 colon = tested on: KM12 colon
A549 NSCLC = tested on: A549 NSCLC

SMILES | GI50 (OVCAR-5 ovarian) | TGI (OVCAR-5 ovarian) | GI50 (SK-MEL-5 melanoma) | TGI (SK-MEL-5 melanoma) | GI50 (NCI-H23 lung) | TGI (NCI-H23 lung) | GI50 (SK-OV-3 ovarian) | TGI (SK-OV-3 ovarian) | GI50 (SF-539 CNS) | TGI (SF-539 CNS) | GI50 (HCC-2998 colon) | TGI (HCC-2998 colon) | GI50 (HOP-62 NSCLC) | TGI (HOP-62 NSCLC) | GI50 (UACC-257 melanoma) | TGI (UACC-257 melanoma) | GI50 (KM12 colon) | TGI (KM12 colon) | GI50 (A549 NSCLC) | TGI (A549 NSCLC)
COC(=O)CNC(=O)[C@@H](OC)[C@@H]1Cc2cc3cc(OC4CC(OC5CC(O)C(O)C(C)O5)C(O)C(C)O4)c(C)c(O)c3c(O)c2C(=O)[C@H]1OC1CC(OC2CC(OC3CC(C)(O)C(O)C(C)O3)C(O)C(C)O2)C(O)C(C)O1 (stereo not given in full) | 0.184 µM | > 50 µM | 0.084 µM | 0.538 µM | 0.15 µM | > 50 µM | 0.444 µM | > 50 µM | 0.141 µM | 2.3 µM | 0.207 µM | 1.7 µM | 0.0908 µM | > 50 µM | 0.146 µM | 1.58 µM | 0.127 µM | > 50 µM | 0.183 µM | > 50 µM
CC(CNC(Cc1ccccc1)c1ccccc1)NC(Cc1ccccc1)c1ccccc1 (stereo not given) | 2.73 µM | 8.76 µM | 1.79 µM | 3.23 µM | 1.94 µM | 4.46 µM | 5.34 µM | 16.8 µM | 1.93 µM | 3.69 µM | 2.03 µM | 4.45 µM | 3.41 µM | 12.4 µM | 2.67 µM | 6.9 µM | 2.36 µM | 5.85 µM | 4.18 µM | 15 µM
Cc1cc(C(C#N)c2ccc(Cl)cc2)c(Cl)cc1NC(=O)c1cc(I)cc(I)c1O (stereo not given) | 11 µM and 15.5 µM | 29.2 µM and 32 µM | 3.09 µM and 14.2 µM | 11 µM and 27.3 µM | 6.2 µM and 14.6 µM | 21 µM and 37.3 µM | 15.6 µM and 15.8 µM | 29.2 µM and 29.5 µM | 8.18 µM and 13.2 µM | 23.2 µM and 32.4 µM | 4.08 µM and 10.8 µM | 15.4 µM and 24 µM | 13.9 µM and 15.2 µM | 34.4 µM and 32.4 µM | 14.4 µM and 15.1 µM | 28.1 µM and 29.6 µM | 13.7 µM and 15.9 µM | 29.8 µM and 30.5 µM | 13.6 µM and 21.3 µM | 56.3 µM and 44.5 µM
CCOc1ccc(NCc2cc(OC)c(OC)c(OC)c2)cc1 | 10.5 µM and 4.43 µM | > 93.8 µM |  | 52.9 µM and > 60.6 µM |  | 31.4 µM and 39.3 µM |  | 22.8 µM and 24.8 µM |  | 2.95 µM and 3.25 µM |  | 98.7 µM and > 50 µM |  | > 36.6 µM and 24.7 µM |  | > 100 µM |  | > 81.5 µM and 46.4 µM |  | > 100 µM
CN(C)C(=S)N=Nc1c(O)[nH]c2ccccc12 | 1.49 µM | 21 µM | 0.626 µM | 12.5 µM | 0.656 µM | 25 µM | 0.79 µM | 13.9 µM | 0.499 µM | 8.39 µM | 1.54 µM | 17.2 µM | 0.708 µM | 14.7 µM | 2.31 µM | 17 µM | 0.496 µM | 12.9 µM | 0.465 µM | 18.8 µM
C=C1C(=O)O[C@H]2[C@H]1CC/C(COC(=O)N1CCC[C@H]1C(=O)Nc1ccc(OC)c(C(N)=O)c1O)=C\CC[C@@]1(C)O[C@@H]21 | 4.41 µM | 18.2 µM | 3.48 µM | 14.2 µM | 5.44 µM | 22.6 µM | 20.9 µM | 65.6 µM | 2.07 µM | 5.76 µM | 8.61 µM | 23.3 µM | 12.8 µM | 30.2 µM | 2.88 µM | 10.9 µM | 5.53 µM | 20 µM | 14.7 µM | 35.1 µM
OCCCCCCOc1ccc(-c2cc(-c3ccccn3)nc(-c3ccccn3)c2)cc1 |  | 4.14 µM |  | 3.48 µM |  | 9.05 µM |  | 1.59 µM |  | 1.02 µM |  | 16.3 µM |  | 1.66 µM |  | 10.2 µM |  | 2.42 µM |  | 6.42 µM
CC(=O)Nc1ccc2c(c1)oc(=O)c1cc(NC(C)=O)ccc12 | > 100 µM | > 100 µM | 96.5 µM | > 100 µM | > 100 µM | > 100 µM | > 100 µM | > 100 µM | > 100 µM | > 100 µM | 52.4 µM | > 100 µM | > 100 µM | > 100 µM | > 100 µM | > 100 µM | 21.7 µM | 52.5 µM | > 100 µM | > 100 µM
COc1ccc(O)c(C#N)c1C#N |  | > 100 µM |  | > 100 µM |  | > 100 µM |  | > 100 µM |  | > 100 µM |  | > 100 µM |  | > 100 µM |  | > 100 µM |  | > 100 µM |  | > 100 µM
CC(C)CC1=[N+]=C(NC#N)N=C(CCC(=O)Nc2ccccc2[N+](=O)[O-])C1 |  | > 100 µM |  | > 100 µM |  | > 100 µM |  | > 100 µM |  | > 100 µM |  | > 100 µM |  | > 100 µM |  | > 100 µM |  | > 100 µM |  | > 100 µM
O=C1C2=C(c3ccccc31)C(c1ccccc1)NC(=S)N2 (stereo not given) |  | > 100 µM |  | > 100 µM |  | > 100 µM |  | > 100 µM |  | 46.3 µM |  | > 100 µM |  | > 100 µM |  | > 100 µM |  | > 100 µM |  | > 100 µM
Cc1cc2c3ccccc3n(C)c2c2c1C(=O)C=CC2=O |  | 35.4 µM |  | 51.6 µM |  | 27.4 µM |  | 53.4 µM |  | 41.9 µM |  | 39.8 µM |  | 49.9 µM |  | 18.7 µM |  | 33.6 µM |  | > 77.8 µM
COc1nc2nccc-2c2occn12 |  | > 100 µM |  | > 100 µM |  | > 100 µM |  | > 100 µM |  | > 100 µM |  | > 100 µM |  | > 100 µM |  | > 100 µM |  | > 100 µM |  | > 100 µM
c1cnc2[nH]cc(-c3csc(-c4cn(CCCCN5CCOCC5)c5ccccc45)n3)c2c1 | 1.82 µM | 3.45 µM | 1.73 µM | 3.16 µM | 2.04 µM | 4.49 µM | 2.34 µM | 5.74 µM | 1.71 µM | 3.13 µM | 1.74 µM | 3.26 µM | 1.7 µM | 3.7 µM | 1.84 µM | 3.53 µM | 1.72 µM | 3.34 µM | 1.89 µM | 4.13 µM
CC(=O)[O-].CC(=O)[O-].[NH2-].[Pt+2].c1ccc2cnccc2c1 | > 100 µM | > 100 µM | 38.4 µM | > 100 µM | 47.7 µM | > 100 µM | > 100 µM | > 100 µM | 4.83 µM | 43.8 µM | > 100 µM | > 100 µM | 74.5 µM | > 100 µM |  | 6.49 µM | 13.5 µM | > 100 µM | 0.147 µM | 15.7 µM

Reference: PubChem BioAssay (NCI)
